{"source": "paper PMC6685951", "about": "“Migration of Bacteriocins Across Gastrointestinal Epithelial and Vascular Endothelial Cells, as Determined Using In Vitro Simulations” (Scientific Reports, 2019)", "key": {"Caco-2 cells": {"system": "Caco-2 cells", "test": "Neutral red viability assay, Caco-2", "format": "cell-based, human", "settings": "24 h, 37 °C", "experimental": "(§1) For viability and cytotoxicity studies, cells were seeded in 96-well flat-bottom culture plates (1 × 10^4 cells/well). To determine migration of nisin A, plantaricin 423 and bacST4SA across the gastrointestinal epithelial and vascular endothelial barriers, HUVEC and Caco-2 cells were grown on an 8 µm pore size tissue culture insert, as shown in Fig. 1. All cell culture experiments were done in triplicate and have been repeated more than three times.\n(§2) Cells were treated with different concentrations of the peptides as described for the XTT assay. Sterile ultrapure water was used as control. After incubation at 37 °C for 24 h, neutral red solution was added to the cells (10% of the culture volume). After 4 h of incubation at 37 °C, the medium was removed by aspiration and the cells were rinsed with neutral red fixative. The fixative was removed, the dye solubilized by adding […] and the cells were gently stirred for 10 min on a gyratory shaker. Absorbance readings were recorded at 540 nm and 690 nm, respectively, using a microtiter plate reader. The percentage viability was calculated as the absorbance of treated cells divided by the absorbance of untreated cells (AT/AC × 100)."}, "L. monocytogenes EGDe": {"system": "L. monocytogenes EGDe", "test": "Antimicrobial activity of NHS-fluorescein labelled versus unlabelled peptides (zone sizes)", "format": "cell-based, Listeria monocytogenes", "settings": "50 µM, 20 µL spotted on LEB agar seeded with L. monocytogenes EGDe, overnight 37 °C", "experimental": "HPLC purified stock solutions of nisin A, plantaricin 423 and bacST4SA were prepared by dissolving the peptides in sterile ultrapure water. Immediately before conjugating NHS-fluorescein to the peptides, a stock solution of NHS-fluorescein was prepared by dissolving 1 mg of reagent in 100 µL DMF. The amount of NHS-fluorescein to be added to each peptide was calculated using the Eqs (2) and (3):2 mLpeptide×mgpeptide/mLpeptide×mmolpeptide/mgpeptide×15mmolNHS/mmolpeptide=mmolNHS 3 mmolNHS×473.4(MWofNHS)/mmolNHS×100µLDMF/1mg=µLNHS\nThe calculated concentration of NHS-fluorescein was added to the peptides and incubated on ice for 2 h. Non-reacted NHS-fluorescein was removed by Sep-Pak C18 column chromatography. Plantaricin 423 and bacST4SA were eluted with 60% acetonitrile containing 0.1% TFA and nisin A with 40% acetonitrile containing 0.1% TFA. Peptides were freeze dried and resuspended in sterile ultrapure water. Concentrations of the labelled peptides were determined with the BCA assay and diluted to 50 µM. Labelled peptides were filtered through a 0.45 µm HVLP membrane and spotted (20 µL) onto LEB agar seeded with 1% L. monocytogenes EGDe (OD600 0.1). Plates were incubated overnight at 37 °C and the fluorescent peptides visualised under a UVP 3UV Ultraviolet Lamp. Inhibition zones were measured using ImageJ software and compared to those of non-labelled peptides."}, "HUVEC [1]": {"system": "HUVEC", "test": "Neutral red viability assay, HUVEC", "format": "cell-based, human", "settings": "24 h, 37 °C", "experimental": "as §1, §2"}, "HUVEC monolayer": {"system": "HUVEC monolayer", "test": "Migration across HUVEC monolayer on transmigration inserts", "format": "in vitro ADME, human", "settings": "3 h", "experimental": "as §1\nHUVECs and Caco-2 cells were seeded onto transmigration inserts (Fig. 1) at a cell density of 1 × 10^5 cells/insert (200 µL). Inserts were carefully placed in a 24-well tissue culture plate containing 700 µL cell growth media. […] The integrity of the monolayers was monitored by ensuring trans-epithelial electrical resistance (TEER) readings remained above 300 Ω throughout the experiment (Millicell-ERS volt-ohm meter, Merck)[51],[52],[62]. […] Transmigration inserts containing no monolayer, was used to determine the total fluorescence. Samples were incubated for 3 h while absorbance was measured at 490 nm every 30 min using a microplate reader. Before each reading, inserts were removed and placed into new microplates containing fresh media. […]\nThe percentage of peptide that attached to, or entered the cells was quantified by subtracting the sum of migrated peptide (eq. 4) and retained peptide (eq. 5) from the total fluorescence. […]"}, "HUVEC [2]": {"system": "HUVEC", "test": "LDH release assay, HUVEC", "format": "cell-based, human", "settings": "24 h", "experimental": "as §1\nHUVEC and Caco-2 cells were exposed to three different concentrations (25 µM, 50 µM and 100 µM) nisin A, plantaricin 423 and bacST4SA and the presence of extracellular LDH determined using the LDH release assay kit. Sterile ultrapure water was used as negative control (referred to as spontaneous LDH activity) and lysis buffer (10X) was used as positive control (referred to as maximum LDH activity). After incubating the cultures in the presence of the peptides for 24 h at 37 °C, culture supernatants were pipetted into a 96-well plate. Reaction mixture was added to the supernatants and plates were incubated at 25 °C for 30 min. Absorbance was measured at 490 nm and 680 nm, respectively. The percentage cytotoxicity was calculated as follows (1):1 %Cytotoxicity=(Compound−treatedLDHactivity)−(SpontaneousLDHactivity)/MaximumLDHactivity−SpontaneousLDHactivity×100"}}, "note": "Where a SMILES comes first, the peptide text is derived from it. Bridges are numbered along the chain shown (N, C = ends).", "data": [{"molecule": "CC(C)C[C@@H]1NC(=O)[C@H](Cc2c[nH]cn2)NC(=O)[C@H](CO)NC(=O)[C@H](C(C)C)NC(=O)[C@H](CO)NC(=O)[C@@H](NC(=O)[C@H](CO)NC(=O)[C@H](Cc2ccccc2)NC(=O)[C@H](C)NC(=O)[C@H](CCC(N)=O)NC(=O)CNC(=O)[C@H](Cc2c[nH]c3ccccc23)NC(=O)[C@H](CC(N)=O)NC(=O)[C@@H](NC(=O)[C@H](CO)NC(=O)[C@@H]2CSSC[C@H](NC(=O)[C@@H](NC(=O)[C@@H](NC(=O)CNC(=O)[C@H](CC(N)=O)NC(=O)CNC(=O)[C@H](Cc3ccc(O)cc3)NC(=O)[C@H](Cc3ccc(O)cc3)NC(=O)[C@@H](N)CCCCN)C(C)C)[C@@H](C)O)C(=O)NCC(=O)N[C@@H](CCCCN)C(=O)N[C@@H](Cc3c[nH]cn3)C(=O)N[C@@H](CO)C(=O)N2)C(C)C)CSSC[C@@H](C(=O)O)NC(=O)[C@H](CCCCN)NC(=O)CNC(=O)[C@H](Cc2c[nH]cn2)NC(=O)CNC(=O)[C@H](Cc2ccccc2)NC(=O)[C@H](CC(N)=O)NC(=O)[C@H](C)NC1=O", "note": "[plantaricin 423] (H-KYYGNGVTCGKHSCSVNWGQAFSCSVSHLANFGHGKC-OH; disulfide 9-14, 24-37; N-terminus and C-terminus assumed)", "values": [{"measurement": "cell viability (neutral red)", "setting": "Caco-2 cells; Caco-2, 25 µM and 50 µM (up to 50 µM)", "value": "did not cause significant decreases"}, {"measurement": "cell viability (neutral red)", "setting": "Caco-2 cells; Caco-2, 100 µM", "value": "slight reduction"}, {"measurement": "decrease in activity of labelled versus unlabelled peptide (antimicrobial zone sizes)", "setting": "L. monocytogenes EGDe", "value": 24, "unit": "%"}, {"measurement": "cell viability (neutral red)", "setting": "HUVEC [1]; 25 µM and 50 µM (up to 50 µM)", "value": "did not cause significant decreases"}, {"measurement": "cell viability (neutral red)", "setting": "HUVEC [1]; 100 µM", "value": "slight reduction"}, {"measurement": "migrated peptide", "setting": "HUVEC monolayer; HUVEC monolayer on 8 µm pore insert, apical addition, NHS-fluorescein labelled peptide 50 µM, 37 °C, TEER above 300 Ω, read at 490 nm, % of no-monolayer control, triplicate", "value": 93, "unit": "%"}, {"measurement": "percentage attached and/or entered peptide", "setting": "HUVEC monolayer; HUVEC, labelled peptide 50 µM, total fluorescence minus migrated and residual peptide", "value": 0, "unit": "%"}, {"measurement": "cytotoxicity level (LDH release)", "setting": "HUVEC [2]; 100 µM, 37 °C, percentage of maximum LDH release (lysis buffer = 100%)", "value": 21, "unit": "%"}, {"measurement": "toxicity (LDH release)", "setting": "HUVEC [2]; concentrations up to 100 µM", "value": "minimal toxicity"}]}]}
